Series [1] concerns human (tumor) Hif2α (EPAS1) mRNA. Description: Hif2α knockdown in orthotopic RCC tumor bearing mice, single injection of RNAi trigger-delivery polymer conjugate, RT-qPCR (Table 7). It is filed as in vivo. As to conditions: single tail vein injection, relative to isotonic glucose. Summed up: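 Female athymic nude mice carried orthotopic A498-SEAP ccRCC kidney tumours, used 5–6 weeks after implantation. They received one tail-vein injection of RGD-targeted Hif2α RNAi trigger–polymer conjugate or isotonic glucose. Tumour Hif2α mRNA was measured by TaqMan RT-qPCR normalised to CycA (ΔΔCT) and expressed relative to glucose-treated mice.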

For series [2] the test system is unchanged. Description: Hif2α expression in RCC tumor bearing mice after single injection of RGD targeted conjugates, 72 h, RT-qPCR (Table 11). In kind it is in vivo. As to the method: Female athymic nude mice were anesthetized with ˜3% isoflourane and placed in the right lateral decubitus position. A small, 0.5-1 cm, longitudinally abdominal incision in the left flank was made. Using a moist cotton swab, the left kidney was lifted out of the peritoneum and gently stabilized. Just before injection, a 1.0 ml syringe was filled with the cell/Matrigel mixture and a 27 gauge needle catheter was attached to the syringe tip. The filled syringe was then attached to a syringe pump (Harvard Apparatus, model PHD2000) and primed to remove air. The tip of a 27-gauge needle catheter attached to a syringe was inserted just below the renal capsule near the caudal pole and the tip of the needle was then carefully advanced cranially along the capsule 3-4 mm. A 10 μl aliquot of 2:1 (vol:vol) cell/matrigel mixture containing about 300,000 cells was slowly injected into the kidney parenchyma using a syringe pump. The needle was left in the kidney for 15-20 seconds to ensure the injection was complete. The needle was then removed from the kidney and a cotton swab was placed over the injection site for 30 seconds to prevent leakage of the cells or bleeding. The kidney was then gently placed back into the abdomen and the abdominal wall was closed. Serum was collected every 7-14 days after implantation to monitor tumor growth using a commercial SEAP assay kit. For most studies, tumor mice were used 5-6 weeks after implantation, when tumor measurements were typically around 4-8 mm.
In preparation for quantitative PCR, total RNA was isolated from tissue samples homogenized in TriReagent (Molecular Research Center, Cincinnati, Ohio) following the manufacturer's protocol. Approximately 500 ng RNA was reverse-transcribed using the High Capacity cDNA Reverse Transcription Kit (Life Technologies). For human (tumor) Hif2α (EPAS1) expression, pre-manufactured TaqMan gene expression assays for human Hif2α (Catalog #4331182) and CycA (PPIA) Catalog #: 4326316E) were used in biplex reactions in triplicate using TaqMan Gene Expression Master Mix (Life Technologies) or VeriQuest Probe Master Mix (Affymetrix). For human (tumor) VegFa (VEGFA) expression, pre-manufactured TaqMan gene expression assays for human VegFa (Catalog #4331182, Assay ID: Hs00900055) and CycA (Part#: 4326316E) were used in biplex reactions in triplicate using TaqMan Gene Expression Master Mix (Life Technologies) or VeriQuest Probe Master Mix (Affymetrix). Quantitative PCR was performed by using a 7500 Fast or StepOnePlus Real-Time PCR system (Life Technologies). The ΔΔCT method was used to calculate relative gene expression.
RGD targeted HiF2α-RNAi trigger delivery polymer conjugates were formed using polymer 126, 100A, or 006. The RNAi trigger, μg indicates the quantity of trigger reacted with polymer. The polymer was modified with the indicated RGD mimic and PEG modifying agents as described above. Kidney RCC tumor-bearing mice were generated as described and treated with a single tail vein injection of isotonic glucose (G1) or the indicated Hif2α RNAi trigger-delivery polymer conjugate. Mice were euthanized 72 h (day 4) after injection and total RNA was prepared from kidney tumor using Trizol reagent following manufacturer's recommendation. Relative HiF2α mRNA levels were determined by RT-qPCR as described and compared to mice treated with delivery buffer (isotonic glucose) only (Table 11).

“And” between values parts separate entries of the source, which are not always exact repeats. Equal entries are not always repeated.

For the substance “AD01214 (antisense TUUCAUGAAAUCGUUACGUTT; sense ACGUAACGAUUUCAUGAAAT; Hif2alpha RNAi agent antisense strand; modified_base 2,4,6,8,10,12,14,16,18 /mod_base = “2′-deoxy-2′-fluoro corresponding nucleoside”; modified_base 3,5,7,9,11,13,15,17,19 /mod_base = “2′-O-methyl corresponding nucleoside”; modified_base 21 /mod_base = “5′-phosphorothioate corresponding nucleotide”; Hif2alpha RNAi agent sense strand; modified_base 1,3,5,7,9,11,13,15,17,19 /mod_base = “2′-deoxy-2′-fluoro corresponding nucleoside”; modified_base 2,4,6,8,10,12,14,16,18 /mod_base = “2′-O-methyl corresponding nucleoside”; modified_base 20 /mod_base = “3′-3′-linked nucleotide”; modified_base 1 /mo)”, the “Relative Expression day 4 (Hif2α mRNA in kidney tumor)” value in series [1] (RNAi trigger 80 μg, polymer 126 400 μg) was determined as 0.29; in series [1] (RNAi trigger 112.5 μg, polymer 006 300 μg), 0.36. Further, the “Relative Expression day 4 (Hif2α)” value came out at 0.489 in series [2] (trigger 80 μg, polymer 126 280 μg, TFF, RGD-PEG8-HyNic 0.5×, PEG12-FCit-PABC-PNP); 0.360 in series [2] (trigger 80 μg, polymer 126 280 μg, RGD-PEG8-ACit-PABC-PNP 0.4×, PEG6-ACit-PABC-PNP); 0.288 in series [2] (trigger 80 μg, polymer 126 280 μg, RGD-PEG8-ACitFP-NHS 1×, PEG6-ACit-PABC-PNP); 0.210 in series [2] (trigger 80 μg, polymer 126 280 μg, RGD-PEG8-HyNic 0.5×, PEG12-FCitFP-TFP); 0.357 in series [2] (trigger 112.5 μg, polymer 006 300 μg, RGD-PEG8-HyNic, PEG12-ACit-PABC-PNP); 0.193 in series [2] (trigger 112.5 μg, polymer 100A 375 μg, TFF, RGD-PEG15-FCitFP-TFP 0.5×, no. 10.8, PEG12-ACit-PABC-PNP). The “Relative Expression day 4 (Hif2α)” value is recorded as 0.182 in series [2] (trigger 112.5 μg, polymer 100A 375 μg, TFF, RGD-PEG15-FCitFP-TFP 1×, no. 16.1, PEG12-ACit-PABC-PNP); 0.182 in series [2] (trigger 112.5 μg, polymer 100A 375 μg, TFF, RGD-PEG15-FCitFP-TFP 2×, no. 29.0, PEG12-ACit-PABC-PNP); 0.163 in series [2] (trigger 112.5 μg, polymer 100A 375 μg, TFF, RGD-PEG19-FCitFP-TFP 0.5×, no. 10.7, PEG12-ACit-PABC-PNP); 0.114 in series [2] (trigger 112.5 μg, polymer 100A 375 μg, TFF, RGD-PEG19-FCitFP-TFP 1×, no. 18.5, PEG12-ACit-PABC-PNP); 0.182 in series [2] (trigger 112.5 μg, polymer 100A 375 μg, TFF, RGD-PEG19-FCitFP-TFP 2×, no. 31.1, PEG12-ACit-PABC-PNP); 0.169 in series [2] (trigger 112.5 μg, polymer 100A 375 μg, TFF, RGD-PEG20-FCitFP-TFP 0.125×, no. 1.9, PEG12-ACit-PABC-PNP). In addition, the “Relative Expression day 4 (Hif2α)” value in series [2] (trigger 112.5 μg, polymer 100A 375 μg, TFF, RGD-PEG20-FCitFP-TFP 0.25×, no. 3.4, PEG12-ACit-PABC-PNP) is 0.168; in series [2] (trigger 112.5 μg, polymer 100A 375 μg, TFF, RGD-PEG20-FCitFP-TFP 0.5×, no. 6.6, PEG12-ACit-PABC-PNP) it was 0.130; in series [2] (trigger 112.5 μg, polymer 100A 375 μg, TFF, RGD-PEG20-FCitFP-TFP 1×, no. 12.7, PEG12-ACit-PABC-PNP), 0.121; in series [2] (trigger 112.5 μg, polymer 100A 375 μg, TFF, RGD-PEG20-FCitFP-TFP 1.5×, no. 20.3, PEG12-ACit-PABC-PNP), 0.135; in series [2] (trigger 112.5 μg, polymer 100A 375 μg, RGD-PEG19-FCitFP-TFP 1×, PEG12-ACit-PABC-PNP) it was 0.195; in series [2] (trigger 112.5 μg, polymer 100A 375 μg, RGD-PEG19-FCitFP-TFP 1×, PEG12-FCitFP-TFP) it was 0.148 and 0.188. Moreover, the “Relative Expression day 4 (Hif2α)” value in series [2] (trigger 115 μg, polymer 100A 375 μg, RGD-PEG8-HyNic 0.5×, PEG12-FCitFP-TFP) was found to be 0.258.

Values taken from patent US9976141B2, “Compositions and methods for inhibiting gene expression of Hif2alpha” (Arrowhead Madison Inc., priority 2015, dated 2018).
